Assay [1] has as its target T1, Dop1R2 (Drosophila melanogaster, UniProt Q24563).
T1 construct: receptor cDNA in pcDNA1.1, transiently expressed in HEK293 with CRE-luciferase reporter
T1 sequence (Q24563 1-539): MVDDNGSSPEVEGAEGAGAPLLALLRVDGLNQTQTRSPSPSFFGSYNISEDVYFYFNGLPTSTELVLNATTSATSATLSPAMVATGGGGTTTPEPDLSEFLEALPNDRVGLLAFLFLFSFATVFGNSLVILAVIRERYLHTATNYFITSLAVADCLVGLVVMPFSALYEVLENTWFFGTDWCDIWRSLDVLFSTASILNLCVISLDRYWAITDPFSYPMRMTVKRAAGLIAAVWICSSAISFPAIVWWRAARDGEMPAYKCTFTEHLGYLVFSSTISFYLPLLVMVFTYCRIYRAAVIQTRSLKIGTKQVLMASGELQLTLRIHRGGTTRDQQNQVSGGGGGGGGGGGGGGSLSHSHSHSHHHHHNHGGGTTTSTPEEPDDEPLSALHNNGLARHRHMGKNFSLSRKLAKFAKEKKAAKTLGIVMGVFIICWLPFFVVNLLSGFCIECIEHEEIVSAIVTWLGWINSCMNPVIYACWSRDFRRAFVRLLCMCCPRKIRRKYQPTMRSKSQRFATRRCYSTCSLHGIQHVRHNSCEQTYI
Nature of the assay: CRE-luciferase reporter assay in transfected HEK293 cells. It counts as cell-based.

The target of assay [2] is T1, Dop1R2. The assay is described as above. It counts as cell-based. This is another data set of the same source.

Here are results for two compounds from PMC4868058, “A critical role for the Drosophila dopamine D1-like receptor Dop1R2 at the onset of metamorphosis” (BMC Developmental Biology, 2016).

Counter-ions that a name gives are not always drawn.

In general, EC50 refers to the concentration needed to bring the measured effect to its halfway point. The compound `NCCc1ccc(O)c(O)c1` [dopamine hydrochloride] came in with an EC50 in assay [1] of 270 nM. For orientation: IC50 means the point on the concentration scale where inhibition reaches its midpoint. Higher therefore signals lower potency. For `OCCN1CCN(CCC=C2c3ccccc3Sc3ccc(C(F)(F)F)cc32)CC1` [flupenthixol dihydrochloride], the IC50 in assay [2] was found to be 260 nM.
